Reference: patent US20080262228A1, “Metabolites of 5-fluoro-8- quinoline and methods of preparation and uses thereof” (Wyeth, priority 2006, published 2008)
Where a name gives a salt, the structure may show the parent alone. Values belong to the compound of their own block, whether it stands above or below them.

Assays:
in vitro = details: microsomes
Experimental: Experiments were conducted to determine the intrinsic clearance by substrate depletion for COMPOUND I metabolism in liver microsomes in the presence of NADPH and UDPGA. Incubations containing midazolam (0.2 μM with 0.1 mg/mL liver microsomes) or diclofenac (1 μM with 1 mg/mL liver microsomes) were also performed as positive controls for oxidative and glucuronidation activity, respectively. Sample preparation and incubation were performed on a MultiProbe IIEX Robotic Liquid Handling System (Perkin-Elmer, Shelton, Conn.) and a Micromix 5 (Packard, Downers Grove, Ill.). Samples were pre-incubated at 37° C. Control incubations were conducted under the same conditions without cofactors. At specified time points (0, 10, 20 and 30 min), 150 μL aliquots were transferred to tubes with 500 μL acetonitrile containing 30 ng/mL of the internal standard (furosemide) to precipitate the protein. Samples were centrifuged at 4° C. for 10 min at 3400 rpm (ThermoForma, Marietta, Ohio). The supernatant (400 μL) was transferred to a clean test tube and the acetonitrile evaporated under a stream of nitrogen in a Turbo Vap (Caliper Life Sciences, Hopkinton, Mass.). The samples were then reconstituted in 200 μL of 20% methanol in water and analyzed by LC/MS.
The HPLC system used was a Surveyor HPLC (Thermo Electron Corp., San Jose, Calif.). Separations were accomplished on a Supelcosil LC-C18 column (150×4.6 mm, 5 μm) (Supelco, Bellefonte, Pa.). The column temperature was maintained at ambient and the sample chamber was at 10° C. Mobile phase A was 5 mM ammonium acetate in water and mobile phase B was methanol.
The mass spectrometer used for microsomal stability analysis was a TSQ Quantum (Thermo Electron Corp.; San Jose, Calif.) equipped with an electrospray ionization (ESI) source and operated in the positive ionization mode.
Peak area ratios for COMPOUND I against the internal standard were used to express the % remaining at given time points. The percent of remaining COMPOUND I was calculated by dividing the […]. In vitro intrinsic clearance (CLint) of COMPOUND I was calculated by linear regression of log % remaining vs time plots using Microsoft Excel, 7.0 and normalizing to mg protein content. Metabolic half-life (t1/2) was calculated by dividing 0.693 by the intrinsic clearance.

human 5-HT1A receptor = molecular target: T1, human 5-HT1A receptor (Homo sapiens, UniProt P08908); test: Forskolin-induced adenylate cyclase (cAMP) functional assay in h5-HT1A.CHO cells; format: cell-based
T1 construct: expressed in transfected cells
T1 sequence (P08908 1-422): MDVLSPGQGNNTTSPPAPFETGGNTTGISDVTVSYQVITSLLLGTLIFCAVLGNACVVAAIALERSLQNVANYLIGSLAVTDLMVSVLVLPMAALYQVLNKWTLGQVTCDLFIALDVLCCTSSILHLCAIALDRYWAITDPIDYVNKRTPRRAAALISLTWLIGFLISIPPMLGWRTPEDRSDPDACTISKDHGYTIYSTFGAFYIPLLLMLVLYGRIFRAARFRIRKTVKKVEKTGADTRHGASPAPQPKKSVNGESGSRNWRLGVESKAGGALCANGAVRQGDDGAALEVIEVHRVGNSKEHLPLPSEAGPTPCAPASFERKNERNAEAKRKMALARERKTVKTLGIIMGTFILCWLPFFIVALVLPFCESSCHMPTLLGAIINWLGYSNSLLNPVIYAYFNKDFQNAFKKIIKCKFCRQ
Experimental: A Ki value is reported. The in vitro functional activity of the compounds of this invention is determined by measuring the effect of the compound on forskolin-induced adenylate cyclase activity in the same cell line. 5-HT1A agonists, such as the full agonist 8-OH-DPAT, inhibit forskolin-induced adenylate cyclase activity, as measured by a reduction in cAMP levels. The compounds of this invention display agonist activity as shown by its ability to induce a decrease in cAMP levels. An EC50 value is reported and the maximum response of the test compound is reported as the percent of a full agonist response (the maximum response obtained with the full agonist 8-OH-DPAT=100%). This percent is expressed as an Emax value.
The PCR cloning of the human 5-HT1A receptor subtype from a human genomic library has been described previously (Chanda et al., Mol. Pharmacol., 43:516 (1993)). A stable Chinese hamster ovary cell line expressing the human 5-HT1A receptor subtype (h5-HT1A.CHO cells) was employed throughout this study. […]
Measurements can be performed as described in Dunlop, J. et al., supra. […] Functional activity is assessed by treating the cells with forskolin (1 uM final concentration) followed immediately by test compound (6 different concentrations) for an additional 10 min. at 37° C. […]

[1] = Turnover to metabolites in cryopreserved hepatocytes; details: hepatocytes, 20 μM
Experimental: Chromatographic analyses were performed with a Waters Alliance model 2695 HPLC system (Waters Corp., Milford, Mass.) that was equipped with a built-in autosampler. The column eluent was monitored with a model 996 diode array UV detector, set to monitor 250 nm, and a FloOne β Model A525 radioactivity flow detector (Perkin Elmer) with a 250 μL flow cell. Separation of the parent compound from metabolites was accomplished using a Discovery C18 column, 250×4.6 mm, 5 μm (Supelco, Bellefonte, Pa.) at an ambient temperature of approximately 20° C. Mobile phase A was 10 mM ammonium acetate (pH 4.5) and mobile phase B was acetonitrile and they were delivered at 1 mL/min using the gradient described in Table 10. The Ultima Flo M scintillant flow rate was 3 mL/min.
Flo-One analytical software (version 3.65) was utilized to integrate the radioactive peaks. Means and standard deviations were calculated using Microsoft Excel® 2000. Micromass MassLynx software (version 4.0, Waters Corp.) was used for control of LC/MS equipment and recording of data from LC/MS analyses.

half-life at 1 μM (in vitro; both, human): 7 min
microsomal CLint at 1 μM (in vitro; both, human): 100 µL/min/mg
half-life at 1 μM (in vitro; male, Sprague-Dawley, rat): 2 min
microsomal CLint at 1 μM (in vitro; male, Sprague-Dawley, rat): 332 µL/min/mg
half-life at 1 μM (in vitro; male, beagle, dog): 13 min
microsomal CLint at 1 μM (in vitro; male, beagle, dog): 55 µL/min/mg
half-life at 1 μM (in vitro; male, monkey): 2 min
microsomal CLint at 1 μM (in vitro; male, monkey): 312 µL/min/mg
Structure (SMILES): COc1cc(N2CCN(C3CCN(c4ccc(F)c5cccnc45)CC3)CC2)c2ncccc2c1 [COMPOUND I, 5-Fluoro-8-{4-[4-(6-methoxyquinolin-8-yl)piperazin-1-yl]piperidin-1-yl}quinoline]

EC50 (human 5-HT1A receptor; decrease of forskolin-induced cAMP, read-out: EC50 value for in vitro agonist activity): 0.39 nM
Emax (human 5-HT1A receptor; percent of full agonist response (8-OH-DPAT=100%)): 92%
Structure (SMILES): Oc1cc(N2CCN(C3CCN(c4ccc(F)c5cccnc45)CC3)CC2)c2ncccc2c1 [Metabolite M21, 8-{4-[1-(5-fluoroquinolin-8-yl)piperidin-4-yl]piperazin-1-yl}quinolin-6-ol trihydrochloride]

average turnover to metabolites ([1]; both, human, 1 h): 13%
average turnover to metabolites ([1]; both, human, 4 h): 18%
average turnover to metabolites ([1]; dog, 1 h): 8%
average turnover to metabolites ([1]; dog, 4 h): 12%
average turnover to metabolites ([1]; male, rat, 1 h): 32%
average turnover to metabolites ([1]; male, rat, 4 h): 38%
Structure (SMILES): COc1cc(N2CCN(C3CCN(c4ccc(F)c5cccnc45)CC3)CC2)c2ncccc2c1 [[^14C]COMPOUND I, [piperazine-^14C(U)]-5-fluoro-8-(4-(4-(6-methoxyquinolin-8-yl)piperazin-1-yl)piperidin-1-yl)quinoline trisuccinate]
